Values joined by “and” are separate entries in the source; they are usually repeats but may differ in a detail not shown here. Equal values may be shown once. Active and inactive are the calls of the source. No cut-off for these calls is given here.
What was measured:
[1] = biological target: T1, Histidine decarboxylase (Homo sapiens) (UniProt P19113); assay: Inhibition of recombinant human HDC (1 to 512 residues) expressed in Escherichia coli BL21 (DE3) pLysS assessed as reduction in [14C]CO2 production from L-[U-14C]histidine at 10 uM relative to untreated control
T1 sequence (whole entry): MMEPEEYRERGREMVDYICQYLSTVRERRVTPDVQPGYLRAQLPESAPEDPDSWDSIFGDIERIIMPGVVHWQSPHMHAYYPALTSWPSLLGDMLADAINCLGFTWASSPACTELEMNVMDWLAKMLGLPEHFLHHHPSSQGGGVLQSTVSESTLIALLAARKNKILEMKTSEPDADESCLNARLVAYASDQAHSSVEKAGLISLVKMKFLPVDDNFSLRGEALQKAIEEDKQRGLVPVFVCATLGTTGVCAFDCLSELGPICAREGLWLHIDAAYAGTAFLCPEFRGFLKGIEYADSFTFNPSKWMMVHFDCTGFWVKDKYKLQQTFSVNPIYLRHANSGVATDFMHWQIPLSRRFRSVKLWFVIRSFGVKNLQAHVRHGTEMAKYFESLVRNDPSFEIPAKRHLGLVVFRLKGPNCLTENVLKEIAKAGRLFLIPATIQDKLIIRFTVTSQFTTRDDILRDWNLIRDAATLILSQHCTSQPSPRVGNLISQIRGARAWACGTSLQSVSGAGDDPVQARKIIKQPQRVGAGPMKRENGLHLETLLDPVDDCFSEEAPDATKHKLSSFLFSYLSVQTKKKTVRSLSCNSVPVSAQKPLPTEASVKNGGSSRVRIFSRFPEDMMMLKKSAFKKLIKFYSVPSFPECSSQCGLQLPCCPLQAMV

Homo sapiens [2] = assay: Improvement in disease symptoms in GERD patient assessed as reduction in cough at 200 mg dosed daily co-treated with 150 mg anti-H2 drug Ranitidine dosed daily; type: functional, organism-based
Homo sapiens [3] = assay: Improvement in disease symptoms in GERD patient assessed as reduction in heartburns at 200 mg dosed daily; type: functional, organism-based
Homo sapiens [4] = assay: Prevention of food allergy in pediatric patient with history of anaphylaxis due to nut allergy assessed as reduction in allergic symptoms at 200 mg dosed daily over 8 months co-administered with 10 mg Montelukast dosed daily; type: functional, organism-based
Homo sapiens [5] = assay: Improvement in disease symptoms in GERD patient assessed as reduction in heartburns at 200 mg dosed daily co-treated with 10 mg anti-H1 drug loratadine dosed daily and 150 mg anti-H2 drug Ranitidine dosed daily; type: functional, organism-based
Homo sapiens [6] = assay: Improvement in disease symptoms in GERD patient assessed as reduction in regurgitation at 200 mg dosed daily co-treated with 150 mg anti-H2 drug Ranitidine dosed daily; type: functional, organism-based
Homo sapiens [7] = assay: Prevention of food allergy in pediatric patient with history of anaphylaxis due to nut allergy assessed as reduction in constipation at 200 mg dosed daily for 6 months co-administered with 10 mg Montelukast dosed daily; type: functional, organism-based
Homo sapiens [8] = assay: Improvement in disease symptoms in GERD patient assessed as reduction in cough at 200 mg dosed daily; type: functional, organism-based
Homo sapiens [9] = assay: Improvement in disease symptoms in GERD patient assessed as reduction in cough at 200 mg dosed daily co-treated with 10 mg anti-H1 drug loratadine dosed daily and 150 mg anti-H2 drug Ranitidine dosed daily; type: functional, organism-based
Homo sapiens [10] = assay: Improvement in disease symptoms in GERD patient assessed as reduction in heartburns at 200 mg dosed daily co-treated with 150 mg anti-H2 drug Ranitidine dosed daily; type: functional, organism-based
Homo sapiens [11] = assay: Prevention of food allergy in pediatric patient with history of anaphylaxis due to nut allergy assessed as reduction in stomach pain at 200 mg dosed daily for 6 months co-administered with 10 mg Montelukast dosed daily; type: functional, organism-based
Homo sapiens [12] = assay: Improvement in disease symptoms in GERD patient assessed as reduction in heartburns at 200 mg dosed daily co-treated with 10 mg anti-H1 drug loratadine dosed daily; type: functional, organism-based
Homo sapiens [13] = assay: Prevention of food allergy in patient with history of anaphylaxis due to ingestion of shrimps assessed as reduction in allergy symptoms at 200 mg dosed daily for 6 weeks co-administered with 10 mg Montelukast dosed daily; type: functional, organism-based
Homo sapiens [14] = assay: Improvement in disease symptoms in GERD patient assessed as reduction in regurgitation at 200 mg dosed daily; type: functional, organism-based
Homo sapiens [15] = assay: Improvement in disease symptoms in GERD patient assessed as reduction in cough at 200 mg dosed daily co-treated with 10 mg anti-H1 drug loratadine dosed daily; type: functional, organism-based
Homo sapiens [16] = assay: Improvement in disease symptoms in GERD patient assessed as reduction in regurgitation at 200 mg dosed daily co-treated with 10 mg anti-H1 drug loratadine dosed daily; type: functional, organism-based
Homo sapiens [17] = assay: Improvement in disease symptoms in GERD patient assessed as reduction in regurgitation at 200 mg dosed daily co-treated with 10 mg anti-H1 drug loratadine dosed daily and 150 mg anti-H2 drug Ranitidine dosed daily; type: functional, organism-based
Homo sapiens [18] = assay: Improvement in disease symptoms in GERD patient assessed as improvement in global disease scores at 200 mg dosed daily co-treated 150 mg anti-H2 drug Ranitidine dosed daily; type: functional, organism-based
Homo sapiens [19] = assay: Prevention of food allergy in patient with history of anaphylaxis due to allergens assessed as reduction in allergy symptoms at 200 mg dosed daily for 6 to 8 weeks co-administered with 10 mg Montelukast dosed daily; type: functional, organism-based
Homo sapiens [20] = assay: Prevention of food allergy in pediatric patient with history of anaphylaxis due to nut allergy assessed as reduction in allergic reactions at 200 mg dosed daily for 6 months co-administered with 10 mg Montelukast dosed daily; type: functional, organism-based
Homo sapiens [21] = assay: Improvement in disease symptoms in GERD patient assessed as improvement in global disease scores at 200 mg dosed daily co-treated with 10 mg anti-H1 drug loratadine dosed daily and 150 mg anti-H2 drug Ranitidine dosed daily; type: functional, organism-based
Homo sapiens [22] = assay: Improvement in disease symptoms in GERD patient assessed as improvement in global disease scores at 200 mg dosed daily; type: functional, organism-based
Homo sapiens [23] = assay: Prevention of food allergy in pediatric patient with history of anaphylaxis due to nut allergy assessed as reduction in digestive symptoms at 200 mg dosed daily over 8 months co-administered with 10 mg Montelukast dosed daily; type: functional, organism-based
Homo sapiens [24] = assay: Prevention of food allergy in patient with history of anaphylaxis due to allergens assessed as reduction in allergy symptoms to pea nut ingestion at 200 mg dosed daily for 8 months co-administered with 10 mg Montelukast dosed daily; type: functional, organism-based
Homo sapiens [25] = assay: Prevention of food allergy in pediatric patient with history of anaphylaxis due to nut allergy assessed as reduction in allergic reactions at 200 mg dosed daily for 6 weeks co-administered with 10 mg Montelukast dosed daily; type: functional, organism-based
Homo sapiens [26] = assay: Prevention of food allergy in pediatric patient with history of anaphylaxis due to nut allergy assessed as reduction in diarrhea at 200 mg dosed daily for 6 months co-administered with 10 mg Montelukast dosed daily; type: functional, organism-based
Homo sapiens [27] = assay: Improvement in disease symptoms in GERD patient assessed as improvement in global disease scores at 200 mg dosed daily co-treated with 10 mg anti-H1 drug loratadine dosed daily; type: functional, organism-based
Homo sapiens [28] = assay: Improvement in disease symptoms in GERD patient assessed as reduction in regurgitation at 150 mg dosed daily; type: functional, organism-based
Homo sapiens [29] = assay: Improvement in disease symptoms in GERD patient assessed as reduction in heartburns at 150 mg dosed daily; type: functional, organism-based
Homo sapiens [30] = assay: Improvement in disease symptoms in GERD patient assessed as improvement in global disease scores at 150 mg dosed daily; type: functional, organism-based
Homo sapiens [31] = assay: Improvement in disease symptoms in GERD patient assessed as reduction in cough at 150 mg dosed daily; type: functional, organism-based

SMILES: CCOc1c(N)c2c(c(OCC)c1OCC)C(C1c3c(cc4c(c3OC)OCO4)CCN1C)OC2=O (racemic)
- inhibition [1]: 17.5%

SMILES: CCOc1c(N)c2c(c(OCC)c1OCC)C(C1c3c(cc4c(c3OC)OCO4)CCN1C)OC2=O (configuration not stated)
- Activity (Homo sapiens [2]): Active
- Activity (Homo sapiens [3]): inactive
- Activity (Homo sapiens [4]): Active
- Activity (Homo sapiens [5]): Active
- Activity (Homo sapiens [6]): Active
- Activity (Homo sapiens [7]): Active
- Activity (Homo sapiens [8]): inactive
- Activity (Homo sapiens [9]): Active
- Activity (Homo sapiens [10]): Active
- Activity (Homo sapiens [11]): Active
- Activity (Homo sapiens [12]): Active
- Activity (Homo sapiens [13]): Active
- Activity (Homo sapiens [14]): inactive
- Activity (Homo sapiens [15]): Active
- Activity (Homo sapiens [16]): Active
- Activity (Homo sapiens [17]): Active
- Activity (Homo sapiens [18]): Active
- Activity (Homo sapiens [19]): Active
- inhibition [1]: 36.5% and 27.9%
- Activity (Homo sapiens [20]): Active
- Activity (Homo sapiens [21]): Active
- Activity (Homo sapiens [22]): inactive
- Activity (Homo sapiens [23]): Active
- Activity (Homo sapiens [24]): Active
- Activity (Homo sapiens [25]): Active
- Activity (Homo sapiens [26]): Active
- Activity (Homo sapiens [27]): Active

SMILES: CNC(=C[N+](=O)[O-])NCCSCc1ccc(CN(C)C)o1
- Activity (Homo sapiens [28]): inactive
- Activity (Homo sapiens [29]): inactive
- Activity (Homo sapiens [30]): inactive
- Activity (Homo sapiens [31]): inactive

Reference: ChEMBL document CHEMBL4476877, “Treatment of COPD, gastro-esophageal reflux disease (GERD), food allergies and other gastrointestinal conditions and disorders ameliorated by proper histamine management using a combination of histidine decarboxylase inhibitors, LRA drugs, anti-H1 and/or anti-H2 drugs” (2012)
